Measured values taken from patent US20120064505A1, “MEASUREMENT OF MATERIAL PROPERTIES AND RELATED METHODS AND COMPOSITIONS” (Massachusetts Institute of Technology, priority 2010, published 2012).
“Also recorded” adds a separate entry of the source.

Columns and labels:
[1] = tested on: Acute promyelocytic leukemia cells; conditions: differentiated down the neutrophil lineage for three days; cited from earlier work
[2] = tested on: P. falciparum-infected RBCs (iRBCs) and co-cultured uninfected RBCs (uRBCs); assay: Microfluidic deformability cytometer: RBC mobility after artesunate treatment; type: cell-based, human; conditions: for separation resolution between iRBCs and uRBCs: after drug treatment vs without
Method: The deformability of both iRBCs and uRBCs were measured at 2, 4 and 6 hours after artesunate drug treatment (FIG. 60). A synchronized culture of rings with ˜15% parasitemia was resuspended at 0.1% hematocrit in malaria culture medium containing 0.01, 0.05 or 0.1 μg/ml of artesunate.
Layout program CleWin3.0 was used to design the microfluidic device, which consists of a 500×500 μm^2 inlet reservoir, a 500×500 μm^2 outlet reservoir, and parallel capillary channels with triangular pillar arrays (FIG. 55A). Three different pore-size of 2.5, 3.0 and 4.0 μm were designed for the capillary channels to test optimum deformation condition for the experiment. A silicon mold of the device was made using standard silicon processing techniques. The photolithography step was done using a 5× reduction step-and-repeat projection stepper (Nikon NSR2005i9, Nikon Prevision) and reactive-ion etching (RIE) techniques were used to give the mold a final depth of 4.2 μm. Final device was then casted from the silicon mold using polydimethylsiloxane (PDMS) and was sealed by a glass slide using oxygen plasma.
P. falciparum 3D7A parasites (from Malaria Research and Reference Reagent Source, American Type Culture Collection) were cultured in leukocyte-free human RBCs (Research Blood Components, Brighton Mass.) in RPMI 1640 complete medium as described (Trager and Jensen J. parasitol. 2005). Parasites cultures were synchronized by sorbitol lysis (Lambros, C 1979 J. parasitol.) two hours after merozoite invasion.
1× Phosphate buffered saline (PBS) was mixed with 1% w/v Bovine Serum Albumin (BSA) (Sigma-Aldrich, St. Louis, Mo.) as a stock solution and was fresh made on every experimental day. For experiments tracking fluid flow velocity, 200 nm FluoSpheres europium luminescent microspheres (Molecular Probes, Eugene, Oreg.) were used at a final concentration of 5.0×10^−[…] percent solids. For experiments involving only healthy RBCs, fresh whole blood (Research Blood Components, Brighton, Mass.) was used at 100 times dilution (i.e. 1 μl whole blood with 99 μl stock solution). For experiments involving parasitized cells, 1 ml of cultured cells were spun down at 1,000 rpm for 5 minute; 1 μl of the pellet was then aliquot to 200 μl stock solution.
10 μl of 1×10^−6M thiazole orange Orange (Invitrogen, Carlsbad, Calif.), which stains the RNA of the cell, was added to the aforementioned 200 μl iRBC solution 20 minutes before the experiment. The infected cells would appear fluorescent under the GFP filter set whereas the uninfected cells were seen as dark shadows.
To control the ambient temperature, the microscope surface was replaced by a heating chamber (Olympus), which was preheated to a desired temperature range (i.e. 30-40° C.) for 30 minutes before the beginning of every experiment. […]

[3] = tested on: RBCs; assay: Deformability cytometer: velocity and passage of glutaraldehyde-treated RBCs; type: cell-based, human; conditions: 30 minutes in PBS; about 0.61 Pa/μm; FIG. 5B
Excerpt: A mold of the device was made on a silicon wafer using photolithography and reactive-ion etching techniques. A 5× reduction step-and-repeat projection stepper (Nikon NSR2005i9, Nikon Precision) was used for patterning. The spacing between pillars was 3 μm, and the depth of the device was 4.2 μm. The device was made using standard PDMS casting protocols and bonded to a glass slide.
PBS was mixed with 0.2% w/v Pluronic F-108 (BASF, Mount Olive, N.J.) and 1% w/v Bovine Serum Albumin (BSA) (Sigma-Aldrich, St. Louis, Mo.) as a stock solution to prevent RBC adhesion to the device walls. For the fluorescent bead experiments, 200 nm FluoSpheres europium luminescent microspheres (Molecular Probes, Eugene, Oreg.) diluted to a final concentration of 1.25×10^−5 percent solids were used.
In experiments involving blood, 1 μl of whole blood (−50% hematocrit) was diluted in 100 μl of the PBS-pluronic-BSA solution for all of the experiments. In experiments involving parasites that express GFP, no further treatment was performed. In experiments involving healthy RBCs, 1 μl of whole blood (Research Blood Components, Brighton, Mass.), 1 μl of 50 μg/ml of Cell Tracker Orange (Invitrogen, Carlsbad, Calif.), and 98 μl of PBS were mixed with the indicated concentration of glutaraldehyde and allowed to sit for 30 minutes. The sample was then washed 3 times with the PBS-Pluronic-BSA solution. […]

[4] = tested on: WT T cells; assay: Micropipette aspiration of chemokine-stimulated migratory T cells (WT); type: cell-based, mouse
Method: (§1) Cells from the peripheral lymph nodes and the spleen of Balb/c mice and WAS−/− mice on Balb/c background were pooled and enriched using the EasySep Mouse CD8+ T Cell Enrichment Kit from STEMCELL Technologies (British Columbia, Canada). Enrichment was confirmed using fluorescence-activated cell sorting (FACS) by staining the cells with FITC/anti-Thy1.2 and PE/anti-CD8α antibodies (Abs). The'memory T cell population was assessed by evaluating the expression of CD44 and CD62L via FACS. T cells in an activation medium with 100 units/mL IL-2 and 1% anti-CD28 Ab were activated by plate-bound anti-CD3 Abs for 4 day at 37° C. The activation medium included RPMI with 10% FBS, 10 mM HEPES (1M), 1% NEAA, 1% sodium pyruvate (100 mM), 50 μM β-mercaptoethanol, 4 mM L-glutamine, and 100 μg/mL Pen/Strep. Cell activation was verified via FACS measurement of CD25.
(§2) Micropipettes made using a micropipette puller were trimmed to 2.5-3 or 4.5-5 μm inner diameter for testing naïve and activated T cells. MPA glass chambers consisted of a 24 mm×60 mm microscope coverslip bottom, a U-shaped parafilm spacer, and a 22 mm×22 mm microscope coverslip top. The assembly was baked for two hours at 80° C. to ensure good adhesion between the components.
(§3) Enriched WT and WAS−/− T cells in DMEM with 1% BSA and 0.1% Pen/Strep were induced to migrate through polycarbonate Transwell inserts (Costar, Cambridge, Mass.) with 5-μm pores in a 24-well plate toward a CCL19 chemokine source (R&D Systems, Minneapolis, Minn.). Inserts contained 5×10^5 cells in 100 μL of medium, and wells contained 1 mL of medium with either no CCL19 or 100 ng/mL of CCL19. Cells were allowed to migrate for ˜7 hours at 37° C., and those that crossed the membrane were collected and used for MPA studies.
3×10^5 cells in 100 μL RPMI with 10% FBS and 1% HEPES was stained with 10 μL trypan blue. The mixture was added to 600 μL of either the RPMI medium or the T cell activation medium with IL-2 for naïve and activated T cell testing. […] The cell movement in the micropipette was recorded with a CCD camera. […]

[5] = tested on: WAS−/− T cells; assay: Micropipette aspiration of chemokine-stimulated migratory T cells (WAS−/−); type: cell-based, mouse; conditions: naïve WAS−/− T cells that migrated toward CCL19 100 ng/mL, ~7 hours; mean+/−SD
Method: as §1
as §2, with “components. […]” for “components.”
3×10^5 cells in 100 μL RPMI with 10% FBS and 1% HEPES was stained with 10 μL trypan blue. […] The cell movement in the micropipette was recorded with a CCD camera. […]

[6] = tested on: WAS−/− T cells; assay: In vitro Transwell cell migration toward CCL19 (WAS−/−); type: cell-based, mouse; conditions: seven hours of exposure to CCL19; 5-μm pore Transwell
Method: as §3

## CC1=C(/C=C/C(C)=C/C=C/C(C)=C/C(=O)O)C(C)(C)CCC1 [all-trans retinoic acid]
[1]
  compliance increase vs control: 45%

## C[C@H]1[C@H](OC(=O)CCC(=O)O)O[C@@H]2O[C@@]3(C)CC[C@H]4[C@H](C)CC[C@@H]1[C@@]24OO3 [artesunate]
[2]; FIG. 60, 2, 4 and 6 hours, 0.01 to 0.1 μg/ml
  cell mobility change due to drug treatment: significant decrease in cell mobility
[2]; after artesunate treatment
  stiffening effect on iRBCs and uRBCs: stiffening effect on both iRBCs and uRBCs; also recorded: both iRBCs and uRBCs stiffened considerably
[2]
  separation resolution between iRBCs and uRBCs: almost doubled
[2]; listed as Artesunate
  separation resolution between iRBCs and uRBCs: doubled

## O=CCCCC=O [glutaraldehyde]
[3]
  RBC stiffness / velocity with increasing concentration: progressively stiffer with decreasing velocity

B1: CCL19: chemokine (R&D Systems) used as chemoattractant for T cells (protein, UniProt Q99731 22-98, looked up)
C-C motif chemokine 19: GTNDAEDCCLSVTQKPIPGYIVRNFHYLLIKDGCRVPAVVFTTLRGRQLCAPPDQPWVERIIQRLQRTSAKMKRRSS
[4]; migratory WT cells
  reduction of modulus from the value in the absence of CCL19: more than 2 times
[4]; migratory WT cells vs activated WT T cells
  stiffness relative to activated cells: about 1.4 times
[4]; naïve WT T cells that migrated toward CCL19 100 ng/mL, ~7 hours, mean+/−SD
  average apparent Young's modulus: 128+/−33 Pa
[5]
  average apparent Young's modulus: 152+/−102 Pa
[6]
  cells migrated: ~6.4%
